In brackets after ≈: the same amount, converted by molar mass.
Tests used:
E. fecium = test: Inhibition of bacterial growth on agar plates (MIC); type: cell-based; details: 37° C., 24 hours
Procedure: (§1) Each compound is assayed against a panel of Bacillus, Enterococcus and Staphylococcus, and a Gram-negative bacterium Escherichia coli as negative control, grown in appropriate plate media solidified with 1.3% agar-agar. Stock solutions of the compounds in dimethylsulfoxide or water, depending on solubility, are added to sterile medium at a temperature of 60° C. […] One tenth mL of diluted bacteria containing 500-1000 colony-forming units (CFU) are plated and spread, and the plates incubated at 37° C. for 24 hours. MIC (minimum inhibitory concentration) is equivalent to the lowest concentration at which growth, i.e. colony formation, is not observed.

B. subtilis = test: as above; type: cell-based; details: Bacillus subtilis, 37° C., 24 hours
Procedure: as §1

E. fecalis = test: as above; type: cell-based; details: 37° C., 24 hours
Procedure: as §1

S.aureus (Smith) = test: as above; type: cell-based; details: Staphylococcus aureus, 37° C., 24 hours
Procedure: as §1

B.subtilis pol IIIC = B.subtilis pol IIIC (Bacillus subtilis, UniProt P13267); test: biochemical
B.subtilis pol IIIC, sequence (P13267 whole entry): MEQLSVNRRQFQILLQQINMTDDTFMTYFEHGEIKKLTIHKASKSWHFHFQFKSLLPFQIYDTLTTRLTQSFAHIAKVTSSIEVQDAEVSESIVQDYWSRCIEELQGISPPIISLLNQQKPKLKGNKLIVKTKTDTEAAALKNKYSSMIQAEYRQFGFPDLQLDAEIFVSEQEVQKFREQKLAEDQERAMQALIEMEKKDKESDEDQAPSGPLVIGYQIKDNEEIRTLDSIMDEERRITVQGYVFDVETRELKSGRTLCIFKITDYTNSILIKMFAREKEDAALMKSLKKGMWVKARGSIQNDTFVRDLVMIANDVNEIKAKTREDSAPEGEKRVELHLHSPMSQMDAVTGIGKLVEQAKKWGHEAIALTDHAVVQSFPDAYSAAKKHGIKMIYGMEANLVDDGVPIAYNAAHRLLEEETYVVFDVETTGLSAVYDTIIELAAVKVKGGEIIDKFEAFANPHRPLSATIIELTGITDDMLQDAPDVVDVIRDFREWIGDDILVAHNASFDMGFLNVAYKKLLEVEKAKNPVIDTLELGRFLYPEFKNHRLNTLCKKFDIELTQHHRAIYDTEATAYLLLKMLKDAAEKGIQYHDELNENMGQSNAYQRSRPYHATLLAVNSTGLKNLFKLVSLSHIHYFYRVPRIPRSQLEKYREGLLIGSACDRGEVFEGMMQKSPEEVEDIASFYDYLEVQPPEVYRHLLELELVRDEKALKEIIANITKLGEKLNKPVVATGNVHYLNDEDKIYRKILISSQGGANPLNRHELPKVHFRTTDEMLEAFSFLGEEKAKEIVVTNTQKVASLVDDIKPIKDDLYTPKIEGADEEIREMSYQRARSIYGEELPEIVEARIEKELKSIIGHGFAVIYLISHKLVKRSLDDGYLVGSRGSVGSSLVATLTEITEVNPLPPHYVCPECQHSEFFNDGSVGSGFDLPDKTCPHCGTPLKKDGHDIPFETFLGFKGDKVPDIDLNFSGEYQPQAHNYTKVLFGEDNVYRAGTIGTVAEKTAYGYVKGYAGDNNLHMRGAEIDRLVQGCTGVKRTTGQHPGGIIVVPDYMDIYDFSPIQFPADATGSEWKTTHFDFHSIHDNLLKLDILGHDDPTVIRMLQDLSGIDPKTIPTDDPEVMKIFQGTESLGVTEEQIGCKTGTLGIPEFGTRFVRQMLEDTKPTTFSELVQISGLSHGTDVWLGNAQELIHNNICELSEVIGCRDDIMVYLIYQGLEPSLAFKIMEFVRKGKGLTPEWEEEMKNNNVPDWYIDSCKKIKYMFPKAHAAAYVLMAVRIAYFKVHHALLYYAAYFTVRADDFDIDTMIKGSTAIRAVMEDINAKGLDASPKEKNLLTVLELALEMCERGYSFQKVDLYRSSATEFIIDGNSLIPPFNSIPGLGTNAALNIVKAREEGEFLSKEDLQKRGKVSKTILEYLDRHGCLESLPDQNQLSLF
Procedure: DNA pol activity was assayed as described in Barnes et al., Nuc. Acids Res., 6:1203-19 (1979), using activated “nicked” calf-thymus DNA as template primer, 10 pM [^3H-methyl]-dTTP as the labelled dNTP substrate, and dATP, dCTP, and dGTP at 25 μM each.
Inhibitory activity of the compounds is determined by measuring the ability of the agent to inhibit enzyme-catalyzed incorporation of [^3H]-dTMP into nicked calf thymus DNA in the absence of the competitor dGTP or dATP (“truncated assay”) (see G. E. Wright and N. C. Brown, Inhibition of Bacillus subtilis DNA Polymerase III by Arylhydrazinopyrimidines: Novel Properties of 2-Thiouracil Derivatives, Biochim. Biophys. Acta 432:37-48 (1976)). Purified pol IIIC is added to a buffered solution containing Mg^2+, DTT, glycerol, nicked calf thymus DNA, saturating concentrations of dATP, dCTP, dTTP and [^3H]-dTTP. Reaction mixtures are incubated at 30° C. for 10 minutes, quenched and filtered, and radioactivity in the acid-insoluble material measured by scintillation counting. Experiments are done in triplicate. Inhibitors are assayed by addition of several dilutions of a stock solution of inhibitor (DMSO or water, depending on solubility) before enzyme addition. […] The truncated assay, i.e. exclusion of the competitive substrate dGTP or dATP, depending upon whether the compound is a uracil derivative or an isocytosine derivative, respectively, allows for the direct determination of apparent inhibitor constants (K,) in this assay system.

Compound	MIC (E. fecium) [µg/mL]	MIC (B. subtilis) [µg/mL]	MIC (E. fecalis) [µg/mL]	MIC (S.aureus (Smith)) [µg/mL]	Ki (B.subtilis pol IIIC) [µM]
CCc1cc(Nc2cc(=O)n(CCN3CCOCC3)c(=O)[nH]2)ccc1C [Compound 17, 3-[2-(N-morpholino)ethyl]-6-(3-ethyl-4-methylanilino)uracil]	2.5 (≈ 6.97 µM)	< 1.25	5 (≈ 13.9 µM)	5 (≈ 13.9 µM)	0.09
CCc1cc(Nc2cc(=O)n(CCCN3CCOCC3)c(=O)[nH]2)ccc1C [Compound 24, 3-[3-(N-Morpholino)propyl]-6-(3-ethyl-4-methylanilino)uracil]	5 (≈ 13.4 µM)	2.5 (≈ 6.71 µM)	10 (≈ 26.8 µM)	10 (≈ 26.8 µM)	0.11
CCc1cc(Nc2cc(=O)n(CCOCCOC)c(=O)[nH]2)ccc1C [Compound 12, 3-[2-(2-Methoxyethoxy)ethyl]-6-(3-ethyl-4-methylanilino)uracil]	5 (≈ 14.4 µM)	2.5 (≈ 7.2 µM)	5 (≈ 14.4 µM)	2.5 (≈ 7.2 µM)	0.045
CCc1cc(Nc2cc(=O)n(CCCCCNC[C@H]3CCNC3)c(=O)[nH]2)ccc1C [Compound 63, 3(S)-{5-[(3-pyrrolidinyl)methylamino]pentyl}-6-(3-ethyl-4methylanilino)uracil]	80 (≈ 193 µM)	20 (≈ 48.4 µM)	80 (≈ 193 µM)	40 (≈ 96.7 µM)	0.112
CCc1cc(Nc2cc(=O)n(CCCC(=O)O)c(=O)[nH]2)ccc1C [Compound 31, 3-(3-Carboxypropyl)-6-(3-ethyl-4-methylanilino)uracil]	20 (≈ 60.4 µM)	> 20	> 20	10 (≈ 30.2 µM)	0.057
CCc1cc(Nc2cc(=O)n(CCCCC#N)c(=O)[nH]2)ccc1C [Compound 20, 3-(4-Cyanobutyl)-6-(3-ethyl-4-methylanilino)uracil]	5 (≈ 15.3 µM)	2.5 (≈ 7.66 µM)	2.5 (≈ 7.66 µM)	2.5 (≈ 7.66 µM)	0.094
CCc1cc(Nc2cc(=O)n(CCCCCN3CCc4c([nH]c5ccc(OC)cc45)C3C(=O)O)c(=O)[nH]2)ccc1C (stereo not drawn) [Compound 68, 3-[5-(1-carboxy-6-methoxy-2,3,4,9-tetrahydro-1H-β-carboline-2-yl)pentyl]-6-(3-ethyl-4-methylanilino)uracil]	80 (≈ 143 µM)	20 (≈ 35.7 µM)	80 (≈ 143 µM)	40 (≈ 71.5 µM)	0.288
CCc1cc(Nc2cc(=O)n(CCCCCCCCO)c(=O)[nH]2)ccc1C [Compound 18, 3-(8-Hydroxyoctyl)-6-(3-ethyl-4-methylanilino)uracil]	2.5 (≈ 6.69 µM)	1.25 (≈ 3.35 µM)	2.5 (≈ 6.69 µM)	2.5 (≈ 6.69 µM)	0.026
CCc1cc(Nc2cc(=O)n(CCOCCOCc3ccccc3)c(=O)[nH]2)ccc1C [Compound 5, 3-[2-(2-Benzyloxyethoxy)ethyl]-6-(3-ethyl-4-methylanilino)uracil]	10 (≈ 23.6 µM)	< 1.25	5 (≈ 11.8 µM)	5 (≈ 11.8 µM)	0.056
CCc1cc(Nc2cc(=O)n(C/C=C/CO)c(=O)[nH]2)ccc1C [Compound 32, 3-(4-Hydroxy-2-butenyl)-6-(3-ethyl-4-methylanilino)uracil]	2.5 (≈ 7.93 µM)	1.25 (≈ 3.96 µM)	5 (≈ 15.9 µM)	5 (≈ 15.9 µM)	0.051
CCc1cc(Nc2cc(=O)n(CCCCCN3CC=C(c4cccs4)CC3)c(=O)[nH]2)ccc1C [Compound 72, 3-{5-[1-(4-(thiophen-2-yl)-1,2,3,6-tetrahydropyridinyl)]pentyl}-6-(3-ethyl-4-methylanilino)uracil]	40 (≈ 83.6 µM)	5 (≈ 10.4 µM)	20 (≈ 41.8 µM)	20 (≈ 41.8 µM)	0.077
CCc1cc(Nc2cc(=O)n(CCCC#N)c(=O)[nH]2)ccc1C [Compound 19, 3-(3-Cyanopropyl)-6-(3-ethyl-4-methylanilino)uracil]	5 (≈ 16 µM)	2.5 (≈ 8 µM)	5 (≈ 16 µM)	2.5 (≈ 8 µM)	0.14
CCc1cc(Nc2cc(=O)n(CCCCNC(=O)CCl)c(=O)[nH]2)ccc1C [Compound 50, 3-{4-[(chloromethylcarbonyl)amino]butyl}-6-(3-ethyl-4-methylanilino)uracil]	10 (≈ 25.5 µM)	2.5 (≈ 6.36 µM)	5 (≈ 12.7 µM)	5 (≈ 12.7 µM)	0.035
